Legend:
Details in all cases: Compound concentration 10 µM
[1] = molecular target: Beta-2 adrenergic receptor (Homo sapiens) (UniProt P07550)
[2] = molecular target: D(2) dopamine receptor (Homo sapiens) (UniProt P14416)
[3] = molecular target: Delta-type opioid receptor (Homo sapiens) (UniProt P41143)
[4] = molecular target: 5-hydroxytryptamine receptor 6 (Homo sapiens) (UniProt P50406)
[5] = molecular target: Translocator protein (Homo sapiens) (UniProt P30536)
[6] = molecular target: 5-hydroxytryptamine receptor 1E (Homo sapiens) (UniProt P28566)
Chain of 5-hydroxytryptamine receptor 1E (Homo sapiens) (P28566 whole entry): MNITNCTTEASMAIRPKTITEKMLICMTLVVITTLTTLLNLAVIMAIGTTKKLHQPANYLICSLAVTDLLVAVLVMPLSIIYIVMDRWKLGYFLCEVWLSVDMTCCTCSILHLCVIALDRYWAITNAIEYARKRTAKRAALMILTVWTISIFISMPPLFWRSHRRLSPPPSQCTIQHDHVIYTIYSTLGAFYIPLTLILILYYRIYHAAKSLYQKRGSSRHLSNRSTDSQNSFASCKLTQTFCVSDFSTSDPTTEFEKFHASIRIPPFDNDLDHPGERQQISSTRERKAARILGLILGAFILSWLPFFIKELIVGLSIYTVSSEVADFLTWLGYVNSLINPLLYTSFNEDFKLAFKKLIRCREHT

[7] = molecular target: T1, 5-hydroxytryptamine receptor 1A (Homo sapiens) (UniProt P08908)
T1 sequence (whole entry): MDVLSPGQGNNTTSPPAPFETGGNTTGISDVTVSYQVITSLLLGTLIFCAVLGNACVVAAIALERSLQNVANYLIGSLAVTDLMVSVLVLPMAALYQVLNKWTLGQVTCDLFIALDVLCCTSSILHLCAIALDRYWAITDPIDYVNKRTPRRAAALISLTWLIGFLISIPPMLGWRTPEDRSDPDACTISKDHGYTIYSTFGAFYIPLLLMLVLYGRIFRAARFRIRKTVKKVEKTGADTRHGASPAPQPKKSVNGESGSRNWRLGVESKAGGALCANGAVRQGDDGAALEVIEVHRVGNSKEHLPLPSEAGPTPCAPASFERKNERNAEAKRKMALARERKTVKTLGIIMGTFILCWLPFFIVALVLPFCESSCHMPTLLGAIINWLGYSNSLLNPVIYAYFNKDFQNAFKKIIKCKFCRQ

[8] = molecular target: T2, Alpha-2C adrenergic receptor (Homo sapiens) (UniProt P18825)
T2 sequence (whole entry): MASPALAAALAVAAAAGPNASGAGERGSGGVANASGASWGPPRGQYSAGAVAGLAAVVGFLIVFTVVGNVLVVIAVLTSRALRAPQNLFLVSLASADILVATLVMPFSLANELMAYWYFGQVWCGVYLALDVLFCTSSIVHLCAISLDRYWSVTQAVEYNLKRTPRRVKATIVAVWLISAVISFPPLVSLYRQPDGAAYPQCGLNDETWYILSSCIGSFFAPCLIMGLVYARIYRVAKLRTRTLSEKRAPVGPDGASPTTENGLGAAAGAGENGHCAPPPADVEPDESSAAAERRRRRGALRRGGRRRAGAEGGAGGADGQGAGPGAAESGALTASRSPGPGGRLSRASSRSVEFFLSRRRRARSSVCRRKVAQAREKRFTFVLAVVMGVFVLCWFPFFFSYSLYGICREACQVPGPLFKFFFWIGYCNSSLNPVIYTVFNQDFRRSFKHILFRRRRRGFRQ

[9] = molecular target: T3, Alpha-2A adrenergic receptor (Homo sapiens) (UniProt P08913)
T3 sequence (whole entry): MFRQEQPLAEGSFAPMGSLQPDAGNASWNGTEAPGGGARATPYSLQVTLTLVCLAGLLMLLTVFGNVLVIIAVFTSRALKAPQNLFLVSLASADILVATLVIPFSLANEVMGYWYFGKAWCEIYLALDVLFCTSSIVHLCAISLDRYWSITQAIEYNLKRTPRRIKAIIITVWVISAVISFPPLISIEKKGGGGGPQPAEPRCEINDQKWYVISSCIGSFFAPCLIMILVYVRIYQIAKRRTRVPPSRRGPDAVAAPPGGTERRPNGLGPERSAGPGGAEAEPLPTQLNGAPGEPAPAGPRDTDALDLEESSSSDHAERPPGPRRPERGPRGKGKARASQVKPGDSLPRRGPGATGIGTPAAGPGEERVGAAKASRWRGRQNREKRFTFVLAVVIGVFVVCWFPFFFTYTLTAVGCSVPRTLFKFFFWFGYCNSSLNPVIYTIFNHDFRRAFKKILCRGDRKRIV

[10] = molecular target: Sigma intracellular receptor 2 (Homo sapiens) (UniProt Q5BJF2)
Chain of Sigma intracellular receptor 2 (Homo sapiens) (Q5BJF2 whole entry): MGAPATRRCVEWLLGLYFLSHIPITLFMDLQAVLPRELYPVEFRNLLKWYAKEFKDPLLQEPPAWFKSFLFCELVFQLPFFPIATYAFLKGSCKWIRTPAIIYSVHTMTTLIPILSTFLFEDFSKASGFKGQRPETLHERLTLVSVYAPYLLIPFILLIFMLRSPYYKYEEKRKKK

[11] = molecular target: Sodium-dependent noradrenaline transporter (Homo sapiens) (UniProt P23975)
Chain of Sodium-dependent noradrenaline transporter (Homo sapiens) (P23975 whole entry): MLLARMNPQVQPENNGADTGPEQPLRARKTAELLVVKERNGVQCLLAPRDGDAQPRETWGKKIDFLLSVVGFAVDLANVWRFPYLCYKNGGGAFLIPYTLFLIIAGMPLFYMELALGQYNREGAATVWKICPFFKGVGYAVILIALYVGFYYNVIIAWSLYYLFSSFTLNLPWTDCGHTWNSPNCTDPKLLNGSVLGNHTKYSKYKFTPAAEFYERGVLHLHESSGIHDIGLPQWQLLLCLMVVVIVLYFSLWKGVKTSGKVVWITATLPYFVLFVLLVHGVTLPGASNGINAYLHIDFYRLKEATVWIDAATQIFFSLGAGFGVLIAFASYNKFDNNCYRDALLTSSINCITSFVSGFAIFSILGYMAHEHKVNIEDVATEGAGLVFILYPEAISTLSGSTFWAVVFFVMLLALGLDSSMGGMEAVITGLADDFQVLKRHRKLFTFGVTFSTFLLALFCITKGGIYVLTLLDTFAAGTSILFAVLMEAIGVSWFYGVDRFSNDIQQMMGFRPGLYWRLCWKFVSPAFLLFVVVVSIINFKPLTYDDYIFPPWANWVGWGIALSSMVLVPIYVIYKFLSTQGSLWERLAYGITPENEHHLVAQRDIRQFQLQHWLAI

[12] = molecular target: Histamine H4 receptor (Homo sapiens) (UniProt Q9H3N8)
Chain of Histamine H4 receptor (Homo sapiens) (Q9H3N8 whole entry): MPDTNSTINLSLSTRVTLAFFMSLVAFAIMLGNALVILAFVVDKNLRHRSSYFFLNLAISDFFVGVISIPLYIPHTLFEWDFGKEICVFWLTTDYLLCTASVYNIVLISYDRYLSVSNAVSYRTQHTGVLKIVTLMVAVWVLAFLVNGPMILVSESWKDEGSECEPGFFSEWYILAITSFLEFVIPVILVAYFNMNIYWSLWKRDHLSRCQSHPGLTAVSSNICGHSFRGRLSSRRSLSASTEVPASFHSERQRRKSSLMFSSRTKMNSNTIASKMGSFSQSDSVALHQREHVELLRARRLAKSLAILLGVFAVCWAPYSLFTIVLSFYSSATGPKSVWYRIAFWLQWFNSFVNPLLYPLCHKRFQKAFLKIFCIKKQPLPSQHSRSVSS

[13] = molecular target: D(1A) dopamine receptor (Homo sapiens) (UniProt P21728)
Chain of D(1A) dopamine receptor (Homo sapiens) (P21728 whole entry): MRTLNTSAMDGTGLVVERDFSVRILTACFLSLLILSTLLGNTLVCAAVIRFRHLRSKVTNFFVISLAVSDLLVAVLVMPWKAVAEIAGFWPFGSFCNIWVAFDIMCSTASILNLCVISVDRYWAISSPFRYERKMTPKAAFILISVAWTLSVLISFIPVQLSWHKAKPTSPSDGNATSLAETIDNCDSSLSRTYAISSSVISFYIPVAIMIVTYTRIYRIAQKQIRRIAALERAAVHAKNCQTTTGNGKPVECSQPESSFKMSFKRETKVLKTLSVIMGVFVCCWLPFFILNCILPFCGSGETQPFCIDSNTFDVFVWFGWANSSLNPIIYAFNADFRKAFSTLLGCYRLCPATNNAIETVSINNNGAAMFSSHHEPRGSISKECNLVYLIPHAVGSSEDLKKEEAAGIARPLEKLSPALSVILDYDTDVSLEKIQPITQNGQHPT

[14] = molecular target: D(3) dopamine receptor (Homo sapiens) (UniProt P35462)
[15] = molecular target: 5-hydroxytryptamine receptor 2A (Homo sapiens) (UniProt P28223)
Chain of 5-hydroxytryptamine receptor 2A (Homo sapiens) (P28223 whole entry): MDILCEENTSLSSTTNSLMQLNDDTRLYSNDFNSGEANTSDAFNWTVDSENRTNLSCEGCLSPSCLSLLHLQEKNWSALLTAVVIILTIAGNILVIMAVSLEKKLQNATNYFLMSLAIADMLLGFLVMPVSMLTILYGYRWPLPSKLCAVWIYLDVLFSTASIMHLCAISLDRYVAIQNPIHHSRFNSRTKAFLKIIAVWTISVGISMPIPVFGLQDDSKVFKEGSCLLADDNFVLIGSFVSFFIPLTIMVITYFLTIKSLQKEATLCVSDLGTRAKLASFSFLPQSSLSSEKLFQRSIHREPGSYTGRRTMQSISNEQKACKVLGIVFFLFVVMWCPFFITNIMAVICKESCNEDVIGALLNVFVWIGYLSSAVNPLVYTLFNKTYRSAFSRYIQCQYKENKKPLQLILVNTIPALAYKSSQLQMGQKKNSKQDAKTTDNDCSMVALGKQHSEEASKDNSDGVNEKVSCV

[16] = molecular target: D(1B) dopamine receptor (Homo sapiens) (UniProt P21918)
Chain of D(1B) dopamine receptor (Homo sapiens) (P21918 whole entry): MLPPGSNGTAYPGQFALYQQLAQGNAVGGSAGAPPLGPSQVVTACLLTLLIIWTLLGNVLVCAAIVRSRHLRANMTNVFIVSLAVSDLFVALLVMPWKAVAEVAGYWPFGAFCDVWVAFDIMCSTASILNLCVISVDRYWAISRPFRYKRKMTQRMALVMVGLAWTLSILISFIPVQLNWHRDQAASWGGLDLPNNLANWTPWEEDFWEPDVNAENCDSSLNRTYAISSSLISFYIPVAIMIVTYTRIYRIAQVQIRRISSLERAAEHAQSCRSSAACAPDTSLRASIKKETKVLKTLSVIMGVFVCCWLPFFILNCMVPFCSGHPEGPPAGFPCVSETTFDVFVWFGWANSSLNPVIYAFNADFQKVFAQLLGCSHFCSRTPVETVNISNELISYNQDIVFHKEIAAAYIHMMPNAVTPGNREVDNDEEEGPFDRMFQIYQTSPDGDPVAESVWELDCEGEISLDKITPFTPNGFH

[17] = molecular target: Sodium-dependent serotonin transporter (Homo sapiens) (UniProt P31645)
[18] = molecular target: 5-hydroxytryptamine receptor 1D (Homo sapiens) (UniProt P28221)
[19] = molecular target: T4, Muscarinic acetylcholine receptor M5 (Homo sapiens) (UniProt P08912)
T4 sequence (whole entry): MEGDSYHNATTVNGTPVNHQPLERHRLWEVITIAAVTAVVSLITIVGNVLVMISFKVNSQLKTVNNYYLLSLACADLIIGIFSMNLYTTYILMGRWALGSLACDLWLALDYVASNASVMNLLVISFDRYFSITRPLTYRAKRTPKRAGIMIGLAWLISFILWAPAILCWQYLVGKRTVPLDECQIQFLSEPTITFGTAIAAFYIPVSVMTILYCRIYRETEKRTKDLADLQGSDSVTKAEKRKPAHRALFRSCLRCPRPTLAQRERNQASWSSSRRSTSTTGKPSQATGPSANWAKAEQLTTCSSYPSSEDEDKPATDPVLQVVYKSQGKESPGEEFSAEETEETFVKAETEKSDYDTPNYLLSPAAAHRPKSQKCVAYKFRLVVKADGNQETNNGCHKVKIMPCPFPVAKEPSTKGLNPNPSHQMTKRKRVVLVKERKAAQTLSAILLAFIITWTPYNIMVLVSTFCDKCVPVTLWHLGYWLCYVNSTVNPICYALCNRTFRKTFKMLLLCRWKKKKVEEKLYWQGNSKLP

[20] = molecular target: 5-hydroxytryptamine receptor 7 (Homo sapiens) (UniProt P34969)
Chain of 5-hydroxytryptamine receptor 7 (Homo sapiens) (P34969 whole entry): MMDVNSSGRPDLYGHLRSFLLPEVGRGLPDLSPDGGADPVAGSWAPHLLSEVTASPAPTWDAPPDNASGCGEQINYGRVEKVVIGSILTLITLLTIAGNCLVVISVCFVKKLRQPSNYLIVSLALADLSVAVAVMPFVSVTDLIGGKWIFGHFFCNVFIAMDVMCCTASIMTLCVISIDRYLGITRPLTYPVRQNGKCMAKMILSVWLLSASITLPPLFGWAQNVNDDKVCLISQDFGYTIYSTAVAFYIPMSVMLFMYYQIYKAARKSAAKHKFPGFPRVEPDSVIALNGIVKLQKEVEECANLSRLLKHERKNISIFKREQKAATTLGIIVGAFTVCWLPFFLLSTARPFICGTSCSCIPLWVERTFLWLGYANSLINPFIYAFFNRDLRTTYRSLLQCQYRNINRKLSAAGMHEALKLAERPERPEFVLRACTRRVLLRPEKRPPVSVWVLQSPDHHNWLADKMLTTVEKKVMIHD

[21] = molecular target: 5-hydroxytryptamine receptor 1B (Homo sapiens) (UniProt P28222)
Chain of 5-hydroxytryptamine receptor 1B (Homo sapiens) (P28222 whole entry): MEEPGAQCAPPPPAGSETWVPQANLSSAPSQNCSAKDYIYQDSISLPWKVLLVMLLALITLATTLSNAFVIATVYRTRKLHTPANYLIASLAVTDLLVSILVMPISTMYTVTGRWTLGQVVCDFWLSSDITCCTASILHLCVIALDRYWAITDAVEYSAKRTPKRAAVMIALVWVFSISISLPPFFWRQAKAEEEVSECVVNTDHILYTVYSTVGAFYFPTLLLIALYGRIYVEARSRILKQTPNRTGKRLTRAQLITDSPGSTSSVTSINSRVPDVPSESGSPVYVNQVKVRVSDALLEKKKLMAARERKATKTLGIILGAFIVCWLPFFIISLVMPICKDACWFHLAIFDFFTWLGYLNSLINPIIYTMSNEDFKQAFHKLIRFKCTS

Chain of Beta-2 adrenergic receptor (Homo sapiens) (P07550 whole entry, looked up): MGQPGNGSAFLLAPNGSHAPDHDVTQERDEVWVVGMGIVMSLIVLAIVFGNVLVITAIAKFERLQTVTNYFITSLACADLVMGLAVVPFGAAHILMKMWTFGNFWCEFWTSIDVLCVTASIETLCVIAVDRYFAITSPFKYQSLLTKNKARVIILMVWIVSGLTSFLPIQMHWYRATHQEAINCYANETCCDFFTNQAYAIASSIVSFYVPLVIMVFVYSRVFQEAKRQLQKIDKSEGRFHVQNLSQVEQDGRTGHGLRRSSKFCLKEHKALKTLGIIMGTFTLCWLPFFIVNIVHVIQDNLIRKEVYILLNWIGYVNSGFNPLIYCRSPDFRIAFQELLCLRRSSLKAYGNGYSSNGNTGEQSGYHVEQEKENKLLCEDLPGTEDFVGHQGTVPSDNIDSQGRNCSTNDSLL
Chain of 5-hydroxytryptamine receptor 6 (Homo sapiens) (P50406 whole entry): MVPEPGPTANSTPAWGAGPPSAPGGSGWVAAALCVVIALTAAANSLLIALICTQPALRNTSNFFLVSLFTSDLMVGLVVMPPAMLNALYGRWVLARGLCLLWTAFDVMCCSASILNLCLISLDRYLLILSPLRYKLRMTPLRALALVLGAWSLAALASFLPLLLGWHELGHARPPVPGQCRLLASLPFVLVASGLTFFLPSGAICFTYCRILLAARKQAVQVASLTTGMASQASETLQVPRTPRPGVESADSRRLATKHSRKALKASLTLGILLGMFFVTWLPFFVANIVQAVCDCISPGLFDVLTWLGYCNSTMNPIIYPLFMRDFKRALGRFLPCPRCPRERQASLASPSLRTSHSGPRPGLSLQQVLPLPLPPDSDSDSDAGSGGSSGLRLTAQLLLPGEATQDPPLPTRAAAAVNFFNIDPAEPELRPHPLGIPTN
Chain of Translocator protein (Homo sapiens) (P30536 whole entry): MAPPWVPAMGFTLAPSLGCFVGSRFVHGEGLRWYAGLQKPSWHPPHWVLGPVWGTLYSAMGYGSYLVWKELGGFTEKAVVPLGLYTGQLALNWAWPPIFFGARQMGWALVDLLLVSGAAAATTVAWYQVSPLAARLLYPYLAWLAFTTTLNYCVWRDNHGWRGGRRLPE

Row | SMILES | inhibition [1] [%] | inhibition [2] [%] | inhibition [3] [%] | inhibition [4] [%] | inhibition [5] [%] | inhibition [6] [%] | inhibition [7] [%] | inhibition [8] [%] | inhibition [9] [%] | inhibition [10] [%] | inhibition [11] [%] | inhibition [12] [%] | inhibition [13] [%] | inhibition [14] [%] | inhibition [15] [%] | inhibition [16] [%] | inhibition [17] [%] | inhibition [18] [%] | inhibition [19] [%] | inhibition [21] [%] | other results
1 | Cc1cn2cc(CC(=O)N3CCC4(CC3)CN(Cc3ccc(-n5nccn5)cc3Cl)C4)nc2s1 | 67.1 | 25.1 | 18.8 | 17.5 | 0.99 | -2.62 | 13 | 35.9 | 9.33 | 43.3 | 44.3 | -5.48 | -5.26 | 71.1 | -2.36 | -4.31 | 11.6 | 4.85 | 71.8 |  | 
2 | Cc1cc([C@@H](C)Nc2cccc(-c3cc(C)c(C(=O)N[C@@H](C)C(=O)O)c(C)c3)c2)ccc1Cl |  | 7.32 | 35.9 | -2.64 | 62.7 | 5.92 | 3.66 | -1.32 |  |  | 14.9 |  | 14 | 58.6 | 5.15 | 5.13 | -8.16 |  |  | 12.1 | inhibition [20]: 2.27%
3 | CCC[C@H](Oc1cc(C)c(-n2cc(C(F)(F)F)cn2)c(C)c1)c1ccc(C(=O)NCCC(=O)O)cc1 |  | 8.21 | 27 | -2.41 | 28.7 | 44 | -2.47 | 5.06 |  | 2.23 |  |  | 20.2 |  | 4.78 | 11.7 | -5.66 |  | 70.1 | 12.2 | inhibition [20]: -2.87%
4 | O=C(O)C1CN(Cc2ccc(OCc3ccc(Cl)c(Cl)c3)cc2)C1 |  |  |  | 5.45 | 3.35 | -4 | 13.2 | 10 | 29.7 |  |  | -3.72 |  | 39.5 | 55.1 | -5.98 | -9.84 |  | -2.07 |  | inhibition [20]: -9.54%
5 | NC(=O)[C@@H]1CCCN1C(=O)[C@H](Cc1c[nH]cn1)NC(=O)[C@@H]1CCC(=O)N1 |  | -4.39 | 1.37 | 10.6 | 73.2 | -5.34 |  | 49.8 | 12.4 | 35 | 35.9 | 8.04 | -1.35 | 4.54 | 23.5 | 0.19 | 5.26 |  | 5.07 | 7.27 | inhibition [20]: -8.14%
6 | CCCNS(=O)(=O)Nc1ncnc(OCCOc2ncc(Br)cn2)c1-c1ccc(Br)cc1 |  | 15.2 | 23.6 | 2.99 | 51.2 | 42.3 | 9.06 | -8.41 |  | 30 | 53.5 | 8.98 |  | 54.8 | 42.8 | -1.25 | 67.2 | 9.11 | 11.6 | -0.31 | 
7 | COc1ccc(CNC(=O)c2cc(-c3cncc(Cl)c3)cnc2-c2ccccn2)nc1OC | -9.92 | 17.4 | -4.67 | 14.4 | 17.5 | 12.9 | -8.5 | 7.09 |  | 16.4 | 39 | 5.15 |  | 7.89 | 88.7 | 1.18 | 23.7 | -5.62 | 0.79 | -4.47 | 
8 | N#Cc1ccc(NC(=O)Nc2ccccc2Br)c2nn[nH]c12 | -2.94 | -0.4 | 16.4 |  | 53.9 | 4.87 | 6.16 | 4.08 |  |  | 35.6 | 25.3 | 2.97 | 43.3 | -5.61 | -7.18 | 26.5 | 1.14 | 6.48 | 1.05 | 
9 | Cc1ccc(O)c([C@H](CCN(C(C)C)C(C)C)c2ccccc2)c1 | 19.5 | 42.6 | -8.98 |  | 13.8 |  | -6.09 | 14.9 | 20.2 | 96.9 | 29.7 | -9.16 | -4.98 | 46.2 | 11.4 |  | 20.8 | 41.2 | 0 | 25.3 | 
10 | c1cc(CN2CCCNCCNCCCNCC2)ccc1CN1CCCNCCNCCCNCC1 | -4.45 | -1.67 | -4.5 |  | 7.76 | 33.9 | -6.66 | 66.3 | 7.87 | 22.5 | 33.4 | 11.2 |  | 37.2 | 0.83 | -5.65 | 22.7 | 1.3 | 1.58 | 4.06 | 
